One block for each molecule: values may come before it.
Assay: solvent given as SMILES

- emission maximum (in ClC(Cl)Cl): 597 nm
SMILES: CCCCCCCCCCCCOc1cc2c3c(ccc4c5c(OCCCCCCCCCCCC)cc6c7c(ccc(c1c34)c75)C(=O)N(C1CCCCC1)C6=O)C(=O)N(C1CCCCC1)C2=O

- emission maximum (in ClCCl): 425 nm
SMILES: CCOC(=O)c1c(-c2cc3ccc(OCC=C(C)C)cc3oc2=O)nn(-c2ccccc2)c1C(=O)OCC

SMILES: N#CC1=C(c2ccc(-c3cccs3)s2)CCC1
- emission maximum (in C1CCOC1): 441 nm
- emission maximum (in CC#N): 445 nm
- emission maximum (in CCCCCC): 428 nm
- emission maximum (in CCO): 443 nm
- emission maximum (in OCCOCCO): 455 nm
- emission maximum (in c1ccncc1): 450 nm

SMILES: O=S(=O)(c1ccccc1)c1ccc(-c2ccc3c(c2)c2cc(-c4ccc(S(=O)(=O)c5ccccc5)cc4)ccc2n3-c2ccccc2)cc1
- emission maximum (in CCCCCC): 377 nm
- emission maximum (in CN(C)C=O): 431 nm
- emission maximum (in CO): 434 nm
- emission maximum (in Cc1ccccc1): 381 nm
- emission maximum (in ClCCl): 395 nm

- emission maximum (in ClC(Cl)Cl): 385 nm
SMILES: c1ccc2c(-c3ccc(-n4c5ccccc5c5ccccc54)cc3)c3c(nc2c1)-c1cc2c(cc1CC3)-c1nc3ccccc3c(-c3ccc(-n4c5ccccc5c5ccccc54)cc3)c1CC2

- emission maximum (in CC#N): 419 nm
- emission maximum (in CCO): 453 nm
SMILES: CC1(C)CC(=O)c2c(F)c(C(F)(F)F)c(F)c(F)c2N1

SMILES: CCCCOC(=O)c1cc(Oc2ccc(C(C)(C)C)cc2)c2c3c(Cl)cc4c5c(cc(Cl)c(c6c(Oc7ccc(C(C)(C)C)cc7)cc(C(=O)OCCCC)c1c26)c53)C(=O)N(c1c(C(C)C)cccc1C(C)C)C4=O
- emission maximum (in Cc1ccccc1): 589 nm

SMILES: CCCCCCCCCCC1(CCCCCCCCCC)c2cc(-c3nc4ccccc4s3)ccc2-c2ccc(N3C(=O)c4ccc5c6ccc7c8c(ccc(c9ccc(c4c59)C3=O)c86)C(=O)N(c3ccc4c(c3)C(CCCCCCCCCC)(CCCCCCCCCC)c3cc(-c5nc6ccccc6s5)ccc3-4)C7=O)cc21
- emission maximum (in Cc1ccccc1): 536 nm
- emission maximum (in ClCCl): 533 nm

SMILES: CCCC1=Cc2nc1ccc1[nH]c(cc1CCC)c1nc(c(O)cc3[nH]c2cc3CCC)C(CCC)=C1
- emission maximum (in Cc1ccccc1): 683 nm

SMILES: FC(F)(F)c1cc2n(n1)[B-](c1ccccc1)(c1ccccc1)[n+]1ccc3ccccc3c1-2
- emission maximum (in C1CCCCC1): 410 nm
- emission maximum (in Cc1ccccc1): 410 nm
- emission maximum (in ClCCl): 404 nm

- emission maximum (in CCO): 580 nm
- emission maximum (in ClCCl): 577 nm
SMILES: Cc1ccccc1-c1c2ccc(=[N+]3CCN(C(=O)OC(C)(C)C)CC3)cc-2oc2cc(N3CCN(C(=O)OC(C)(C)C)CC3)ccc12

- emission maximum (in ClC(Cl)Cl): 663 nm
SMILES: CCCCCCCCCCCCCCOc1ccc(C#Cc2cc3nc4c(OCCCCCCCCCCCC)cc5c6cc(OCCCCCCCCCCCC)c(OCCCCCCCCCCCC)cc6c6cc(OCCCCCCCCCCCC)c(OCCCCCCCCCCCC)cc6c5c4nc3cc2C#Cc2ccc(OCCCCCCCCCCCCCC)cc2)cc1

SMILES: CCCCCCc1ccc2c3c(ccc2c1)O[B-](c1ccccc1)(c1ccccc1)[N+](c1ccc([N+]2=Cc4c(ccc5cc(CCCCCC)ccc45)O[B-]2(c2ccccc2)c2ccccc2)cc1)=C3
- emission maximum (in C1CCOC1): 568 nm
- emission maximum (in CC#N): 561 nm
- emission maximum (in Cc1ccccc1): 569 nm
- emission maximum (in ClCCl): 568 nm

- emission maximum (in ClC(Cl)Cl): 498 nm
SMILES: C(#Cc1cccs1)C(C#Cc1cccs1)=Cc1ccc(C=C(C#Cc2cccs2)C#Cc2cccs2)cc1

- emission maximum (in C1CCOC1): 476 nm
SMILES: CN(C)c1ccc(C2=C(c3ccccc3)c3oc4ccccc4[n+]3[B-](F)(F)O2)cc1

- emission maximum (in C1CCOC1): 416 nm
SMILES: CCCCCCCCCc1c2ccccc2cc2c1oc1c3c(c4ccccc4c12)-c1c(c2oc4cc5ccccc5cc4c2c2ccccc12)OCO3

- emission maximum (in ClC(Cl)Cl): 396 nm
SMILES: COc1cc(-c2cc(-c3ccccc3)c(-c3ccccc3)c(-c3ccccc3)c2-c2ccccc2)c(OC)cc1-c1ccc(N(C)C)cc1

SMILES: F[B-]1(F)Oc2ccccc2-c2cc(-n3c4ccccc4c4ccccc43)cc[n+]21
- emission maximum (in Cc1ccccc1): 449 nm
- emission maximum (in O=P(c1ccccc1)(c1ccccc1)c1ccccc1Oc1ccccc1P(=O)(c1ccccc1)c1ccccc1): 475 nm

- emission maximum (in CCO): 674 nm
- emission maximum (in ClC(Cl)Cl): 664 nm
- emission maximum (in O): 684 nm
SMILES: CC[N+](CC)=c1ccc2c(-c3ccccc3C(=O)O)c3c(=O)oc4c5c6c(cc4c3oc-2c1)CCCN6CCC5

- emission maximum (in CCO): 575 nm
- emission maximum (in ClCCl): 577 nm
- emission maximum (in O): 569 nm
SMILES: Oc1c(-c2ccco2)cccc1-c1nc2ccccc2s1

- emission maximum (in C1CCCCC1): 470 nm
SMILES: CN(C)c1ccc(/C=C/C=C/C=C/c2ccc(B(O)O)cc2)cc1

- emission maximum (in CC#N): 443 nm
- emission maximum (in CO): 445 nm
- emission maximum (in CS(C)=O): 455 nm
- emission maximum (in ClC(Cl)Cl): 445 nm
SMILES: O=C1c2ccccc2-c2cc3ccccc3c(=O)n21

- emission maximum (in CC#N): 466 nm
SMILES: COc1ccc(C2=[O+][B-](F)(F)OC(c3ccc4c(c3)Cc3ccccc3-4)=C2)cc1

SMILES: Cc1ccc2c(c1)C1(c3ccccc3-c3ccccc31)c1cc(C)ccc1N2c1ccc(-c2nc(-c3ccccc3)cc(-c3ccccc3)n2)cc1
- emission maximum (in Cc1ccccc1): 458 nm
- emission maximum (in O=P(c1ccccc1)(c1ccccc1)c1ccc2oc3ccc(P(=O)(c4ccccc4)c4ccccc4)cc3c2c1): 464 nm

- emission maximum (in CC#N): 397 nm
SMILES: CN(C)c1ccc(-c2nc3ccccc3n2-c2ccccc2)cc1

- emission maximum (in ClCCl): 653 nm
SMILES: COC(=O)CCC1=CC(C#Cc2ccsc2)=[N+]2C1=Cc1c(CCC(=O)OC)cc(C#Cc3ccsc3)n1[B-]2(F)F

- emission maximum (in ClCCl): 556 nm
- emission maximum (in c1ccccc1): 506 nm
SMILES: CCCCN(CCCC)c1ccc(C#Cc2cc(C#Cc3cc(C(F)(F)F)cc(C(F)(F)F)c3)c(C#Cc3cc(C(F)(F)F)cc(C(F)(F)F)c3)cc2C#Cc2ccc(N(CCCC)CCCC)cc2)cc1

- emission maximum (in CCOC(C)=O): 460 nm
SMILES: CCn1c(-c2ccc(-c3ccc4ccc5cccc6ccc3c4c56)cc2)c(-c2ccc3ccccc3c2)c(-c2ccc3ccccc3c2)c1-c1ccc(-c2ccc3ccc4cccc5ccc2c3c45)cc1

SMILES: O=S(=O)(c1ccc(-c2ccc3c(c2)c2ccccc2n3-c2ccccc2)cc1)c1ccc(-c2ccc3c(c2)c2ccccc2n3-c2ccccc2)cc1
- emission maximum (in C1CCCCC1): 365.07 nm
- emission maximum (in C1CCOC1): 403.28 nm
- emission maximum (in CN(C)C=O): 431.81 nm
- emission maximum (in Cc1ccccc1): 381 nm
- emission maximum (in ClC(Cl)Cl): 402.48 nm
- emission maximum (in ClCCl): 415.93 nm

SMILES: COc1ccc(-c2nc(-c3ccccc3)c(N(C)C)[se]2)cc1
- emission maximum (in ClC(Cl)Cl): 438 nm

SMILES: O=P1(c2ccccc2)C(c2cc(C(F)(F)F)cc(C(F)(F)F)c2)=Cc2c3ccc4cccc5ccc(c6cc(-c7ccccc7)n1c26)c3c45 (stereo unspecified)
- emission maximum (in C1CCCCC1): 501 nm
- emission maximum (in C1CCOC1): 521 nm
- emission maximum (in C1COCCO1): 514 nm
- emission maximum (in CC#N): 531 nm
- emission maximum (in CC(C)=O): 526 nm
- emission maximum (in CO): 524 nm
- emission maximum (in Cc1ccccc1): 514 nm
- emission maximum (in ClC(Cl)Cl): 514 nm
- emission maximum (in ClCCl): 521 nm

SMILES: COc1ccc2c(CC(=O)NN)coc2c1
- emission maximum (in C1CCOC1): 381 nm
- emission maximum (in CC#N): 376 nm
- emission maximum (in CC(C)=O): 396 nm
- emission maximum (in CCCCO): 384 nm
- emission maximum (in CCCO): 396 nm
- emission maximum (in CCO): 374 nm
- emission maximum (in CCOC(C)=O): 368 nm
- emission maximum (in CN(C)C=O): 378 nm
- emission maximum (in CO): 378 nm
- emission maximum (in ClCCl): 402 nm

- emission maximum (in CCO): 438 nm
SMILES: CCN(CC)c1cc2oc3cc(O)c(F)cc3c(=O)c2cc1F

- emission maximum (in C1COCCO1): 601 nm
SMILES: CC(C)CN1C(=O)/C(=C/c2ccc([N+](=O)[O-])cc2)C=C1c1ccccc1

SMILES: c1ccc(-c2nc3ccccc3nc2-c2ccccc2)cc1
- emission maximum (in C1CCOC1): 401 nm
- emission maximum (in CC#N): 399 nm
- emission maximum (in CCCCCC): 396 nm
- emission maximum (in CN(C)C=O): 403 nm
- emission maximum (in Cc1ccccc1): 400 nm
- emission maximum (in ClC(Cl)Cl): 398 nm

- emission maximum (in ClCCl): 580 nm
SMILES: CC1=C(I)C(C)=[N+]2C1=C(c1c(-c3ccccn3)nc3ccccn13)c1c(C)c(I)c(C)n1[B-]2(F)F

SMILES: COc1ccc2c3ccc(OC)cc3n(-c3ccc(-c4nnc(-c5c(C)cc(C)cc5C)o4)cc3C)c2c1
- emission maximum (in Cc1ccccc1): 436 nm

SMILES: Cn1c(=O)c(/N=N/c2cc(S(=O)(=O)O)ccc2S(=O)(=O)O)c(O)c2ccccc21
- emission maximum (in C1CCOC1): 498 nm
- emission maximum (in CC(C)=O): 491 nm
- emission maximum (in CCOC(C)=O): 493 nm
- emission maximum (in CO): 483 nm
- emission maximum (in CS(C)=O): 490 nm
- emission maximum (in Cc1ccccc1): 490 nm
- emission maximum (in ClCCl): 493 nm
- emission maximum (in O): 500 nm

- emission maximum (in ClC(Cl)Cl): 436 nm
SMILES: c1cc2ccc3[nH]c4ccc5cccc6c(c1)c2c3c4c56

- emission maximum (in C1CCCCC1): 468 nm
- emission maximum (in C1CCOC1): 483 nm
- emission maximum (in C1COCCO1): 481 nm
- emission maximum (in CC#N): 491 nm
- emission maximum (in CCCCCCC): 467 nm
- emission maximum (in CCO): 493 nm
- emission maximum (in CN(C)C=O): 492 nm
- emission maximum (in CO): 496 nm
- emission maximum (in O): 485 nm
- emission maximum (in OCCO): 500 nm
SMILES: Cc1nn(-c2ccccc2)c(C2=NN(c3ccc(Br)cc3)[C@@H](c3ccccc3)[C@@H]2c2ccccc2)c1C#N

- emission maximum (in C1CCOC1): 445 nm
SMILES: C(=C(c1ccccc1)c1ccccc1)c1ccc(-c2ccc(C=C(c3ccccc3)c3ccccc3)cc2)cc1

- emission maximum (in ClC(Cl)Cl): 347 nm
SMILES: c1cc2cc(c1)c1ccc3c(c1)c1cc(ccc1[C@]14OCCO[C@]31OCCO4)c1ccc3c(c1)c1cc(ccc1[C@]14OCCO[C@]31OCCO4)c1cccc2c1

- emission maximum (in ClCCl): 566 nm
SMILES: CC1=C(c2ccccc2)C(C)=[N+]2C1=C(c1c(-c3ccccn3)nc3ccccn13)c1c(C)cc(C)n1[B-]2(F)F

- emission maximum (in ClCCl): 458 nm
SMILES: CC(=O)c1ccc(C#Cc2ccc(-c3cc(N(C)C)c4ccccc4c3)cc2)cc1

- emission maximum (in ClC(Cl)Cl): 535 nm
SMILES: CCCCCCCCCCCC#CC#CCCCCCCCCCN1C(=O)c2ccc3c4ccc5c6c(ccc(c7ccc(c2c37)C1=O)c64)C(=O)N(CCCCCCCCCC#CC#CCCCCCCCCCCCC)C5=O

SMILES: N#Cc1ccc(-n2c3ccccc3c3c2c2ccccc2n3-c2ccccc2)cc1
- emission maximum (in Cc1ccccc1): 460 nm

- emission maximum (in CO): 581 nm
SMILES: CCN(CC)c1ccc(C2=C3C(C)=CC(/C=C/c4ccc(OCC(=O)OC)cc4)=[N+]3[B-](F)(F)n3c(C)cc(C)c32)cc1

- emission maximum (in ClCCl): 622 nm
SMILES: CCCCCCOc1cc(C=C2C(=O)c3ccccc3C2=O)c(OCCCCCC)cc1C=C1C(=O)c2ccccc2C1=O

- emission maximum (in CC#N): 456 nm
- emission maximum (in CCCCCC): 385 nm
SMILES: C(=C\c1cccnc1)/c1ccc(Nc2ccccc2)cc1

- emission maximum (in ClCCl): 418 nm
SMILES: COc1ccc(/C=C/c2ccncn2)cc1
